Reference: PMC10384183, “Silver(I) and Copper(II) 1,10-Phenanthroline-5,6-dione Complexes as Promising Antivirulence Strategy against Leishmania: Focus on Gp63 (Leishmanolysin)” (Tropical Medicine and Infectious Disease, 2023)
Where two headings read alike, the source gives them in different places. Where a SMILES comes first, the peptide text is derived from it. The star is where a group is joined. AMC = Cc1cc(=O)oc2cc(N*)ccc12; Cbz = O=C(OCc1ccccc1)*

Legend:
secreted gp63 [1] = biological target: T1, secreted gp63 (Leishmania amazonensis, UniProt Q27673); test: Detection of gp63 activity using fluorogenic substrate Z-Phe-Arg-AMC (kinetics, classical inhibitors); type: biochemical; design: endogenous in cells; host or cells: Leishmania amazonensis promastigotes; 0.22-µm filtered PBS-glucose-conditioned supernatant; conditions: for effect on hydrolysis of Z-Phe-Arg-AMC by gp63: 1 h, alkaline pH
Experimental: The enzymatic activity of secreted gp63 was evaluated by the cleavage of the fluorogenic substrate Z-Phe-Arg-AMC. A 5 mM stock solution of the fluorogenic substrate was prepared in DMSO. The reaction was initiated by adding different substrate concentrations (2.5 µM, 5.0 µM, 10 µM and 20 µM) to gp63 (20 µg protein) in a total volume of 100 µL of 50 mM glycine-NaOH buffer, pH 10.0 [38]. At the same time, the titration of the amount of gp63 was also performed. In this sense, different concentrations of gp63 (ranging from 0.156 to 20 µg) were added to 10 µM Z-Phe-Arg-AMC substrate in a total volume of 100 µL of 50 mM glycine-NaOH buffer, pH 10.0. […] The reaction mixture was incubated at 37 °C for 1 h and the assays were controlled for self-release of the fluorophore in the same time interval. Proteolytic activity was expressed as fluorescence arbitrary units (FAU). Apparent Km and Vmax values were calculated using a computerized non-linear regression from the data obtained from the Michaelis–Menten equation (GraphPad Prism 8).

papain = test system: papain; design: method as in PMID 8907521; conditions: cited from earlier work
LasB = biological target: LasB; design: method as in PMID 31428062; conditions: cited from earlier work
[2] = test system: L. braziliensis gp63, membrane-associated form; design: method as in PMID 34363115; conditions: cited from earlier work
secreted gp63 [3] = biological target: T1, secreted gp63; test: biochemical
Experimental: (§1) L. amazonensis promastigotes (10^9 cells) were resuspended in 2 mL of sterile isotonic PBS supplemented with 2% glucose and incubated for 3 h at both 26 °C (invertebrate host temperature) and 37 °C (mammalian host temperature). After this interval, parasite cells were removed by centrifugation and the supernatant (named PBS-glucose-conditioned supernatant) was passed over a 0.22-μm sterilizing membrane (Millipore, São Paulo, Brazil). The protein concentration was quantified by the method described by Lowry et al. [35], using bovine serum albumin (BSA) as standard.
(§2) To perform this, the reaction mixture containing 10 μg protein, 10 µM substrate and 50 mM glycine-NaOH buffer, pH 10.0, was incubated in the absence or presence of different concentrations of Ag-phendione (ranging from 40 to 0.625 μM) and Cu-phendione (ranging from 1000 to 15.62 μM). Fluorescence was measured using a SpectraMax Gemini XPS fluorescence microplate reader (Molecular Devices, Silicon Valley, CA, USA) at an excitation wavelength of 380 nm and an emission wavelength of 460 nm. […] The inhibitory constant (Ki) value was calculated using a derivation of the Michaelis–Menten equation employing GraphPad Prism 8.

[4] = test system: cell-associated metallo-type peptidases (gp63); test: gp63 proteolytic activity of cell extracts of treated promastigotes; type: cell-based, Leishmania amazonensis; conditions: promastigotes treated 24 h, IC50 and 2 × IC50; Z-Phe-Arg-AMC; versus untreated cells
Experimental: After that, promastigotes were washed and processed to evaluate both gp63 activity and gp63 protein levels.
For gp63 proteolytic activity, initially, whole parasite cellular extracts were obtained by repeated freeze/thawing cycles using 10^6 viable cells in PBS containing 1% CHAPS (3-[(3-cholamidopropyl) dimethylammonium]-1-propanesulfonate), pH 7.0. […] The gp63 proteolytic activity was determined as previously described using the cleavage of the fluorogenic substrate Z-Phe-Arg-AMC.

[5] = test system: L. amazonensis promastigotes and THP-1 human macrophages; test: Promastigotes-macrophage interaction (association index); type: cell-based, Leishmania amazonensis; design: key: % infected macrophages × amastigotes per macrophage
Experimental: The human leukemia monocytic cell line (THP-1) was maintained in 25-cm^2 tissue culture flasks with RPMI 1640 medium (Sigma-Aldrich, St. Louis, MO, USA) supplemented with 10% FBS at 37 °C in an atmosphere containing 5% CO2. To perform interaction experiments, THP-1 cells were seeded in 24-well plates at a density of 2 × 10^5 cells/well and then differentiated into macrophages by treatment with phorbol-12-myristate-13-acetate (PMA; 40 ng/mL) (Sigma-Aldrich) for 48 h. Then, the plates were washed twice with sterile PBS (pH 7.2) to remove PMA and a fresh RPMI 1640 medium was added. At the same time, L. amazonensis promastigotes were treated with the IC50 or 2 × IC50 values of the test compounds for 24 h. After this period, the parasites were allowed to infect the mammalian cells (10 parasites per macrophage) for 24 h at 37 °C and 5% CO2, in the absence or presence of 10 µg soluble gp63. Then, the cultures were washed with PBS to remove non-internalized parasites, fixed with methanol and stained with Giemsa. The percentage of infected macrophages was determined by randomly counting 200 cells on each of triplicate coverslips using a bright-field microscope. The association index was obtained by multiplying the percentage of infected macrophages by the number of amastigotes per macrophage.

[6] = test system: L. braziliensis promastigotes and murine macrophages; design: method as in PMID 34363115; conditions: promastigotes pre-treated for 1 h; cited from earlier work
L. braziliensis = test system: L. braziliensis; design: method as in doi:10.1016/j.ejmcr.2022.100093; conditions: hamsters; cited from earlier work
secreted gp63 [7] = biological target: T1, secreted gp63
Experimental: as §1, §2

[8] = test system: L. amazonensis promastigotes; design: method as in PMID 36678418; conditions: 72 h of parasite-drug contact; cited from earlier work
[9] = test system: L. amazonensis amastigotes; design: method as in PMID 36678418; conditions: amastigotes in THP-1 macrophages; cited from earlier work
secreted gp63 [10] = biological target: T1, secreted gp63; test: Gelatin-SDS-PAGE zymography of gp63 proteolysis; type: biochemical; design: endogenous in cells; host or cells: Leishmania amazonensis promastigotes; 0.22-µm filtered PBS-glucose-conditioned supernatant; conditions: 10 mM, pH 10.0, 48 h, 37 °C
Experimental: Proteolytic activity was assayed by SDS-PAGE containing 0.1% gelatin (Sigma-Aldrich, St. Louis, MO, USA) incorporated into the gel as the proteinaceous substrate. Briefly, 10 micrograms of proteins present in the PBS-glucose-conditioned supernatant were added to the SDS-PAGE sample buffer (125 mM Tris, pH 6.8, 4% SDS, 20% glycerol and 0.002% bromophenol blue) and subsequently subjected to electrophoresis, which was processed at 200 V/20 mA, for 2 h at 4 °C. Subsequently, SDS was removed by incubation of the gels with 2.5% Triton X-100 (Sigma-Aldrich, St. Louis, MO, USA) for 1 h at room temperature under constant agitation. The gels were incubated for 48 h at 37 °C in 50 mM glycine-NaOH buffer, pH 10.0, to promote proteolysis in the absence and in the presence of classical proteolytic inhibitors as follows: 10 mM phen, 10 mM phenylmethylsulphonyl fluoride (PMSF; Sigma-Aldrich, St. Louis, MO, USA) and 10 µM trans-epoxysuccinyl L-leucylamido-(4-guanidino) butane (E-64; Sigma-Aldrich, St. Louis, MO, USA). Finally, the gels were stained with 0.2% Coomassie Brilliant Blue R-250 (Sigma-Aldrich, St. Louis, MO, USA) in methanol–acetic acid–water (50:10:40) and destained in a solution containing methanol–acetic acid–water (5:10:85). The molecular masses of the peptidases were estimated by comparison with the mobility of molecular mass standards (Thermo Fisher Scientific, Waltham, MA, USA).

[11] = promastigotes pre-treated 24 h with 2 × IC50 value, in the presence of 10 µg gp63-rich supernatant
[12] = promastigotes pre-treated 24 h with 2 × IC50 value, without gp63-rich supernatant
[13] = promastigotes pre-treated 24 h with IC50 value, in the presence of 10 µg gp63-rich supernatant
[14] = promastigotes pre-treated 24 h with IC50 value, without gp63-rich supernatant

T1 sequence (Q27673 100-597): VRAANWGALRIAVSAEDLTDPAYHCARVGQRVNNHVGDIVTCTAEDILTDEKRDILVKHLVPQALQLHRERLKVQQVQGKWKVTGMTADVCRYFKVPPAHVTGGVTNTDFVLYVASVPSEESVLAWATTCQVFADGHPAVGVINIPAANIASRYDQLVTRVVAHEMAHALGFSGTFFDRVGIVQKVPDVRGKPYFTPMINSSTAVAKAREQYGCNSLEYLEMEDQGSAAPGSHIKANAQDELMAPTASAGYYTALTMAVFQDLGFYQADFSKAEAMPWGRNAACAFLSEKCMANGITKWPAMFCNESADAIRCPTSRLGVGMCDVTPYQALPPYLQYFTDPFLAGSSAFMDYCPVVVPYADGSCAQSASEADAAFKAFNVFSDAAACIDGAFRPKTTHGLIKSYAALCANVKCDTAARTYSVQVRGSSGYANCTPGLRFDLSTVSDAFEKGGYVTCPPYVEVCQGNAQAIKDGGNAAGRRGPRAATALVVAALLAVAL

## Cc1cc(=O)oc2cc(NC(=O)C(CCCN=C(N)N)NC(=O)C(Cc3ccccc3)NC(=O)OCc3ccccc3)ccc12 (stereo not drawn) [Z-Phe-Arg-AMC] (Cbz-Phe-Arg-{AMC}; configuration not given here)
Secreted gp63 [1]; cleavage of Z-Phe-Arg-AMC by released gp63, pH 10.0, 37 °C
  Vmax: 0.064 µM/s
Secreted gp63 [1]; cleavage of Z-Phe-Arg-AMC by released gp63, pH 10.0, 37 °C, read-out: apparent Km
  Km: 14.2 µM

## oryzacystatin I1 [OCII, reference compound]
papain
  proteolytic activity of papain restored after electrophoresis: ~100%

## CC(C)C[C@H](NC(=O)[C@H]1O[C@@H]1C(=O)O)C(=O)NCCCCN=C(N)N (relative stereo) [E-64, trans-epoxysuccinyl L-leucylamido-(4-guanidino) butane]
Secreted gp63 [1]; inhibitor at 10 µM
  effect on hydrolysis of Z-Phe-Arg-AMC by gp63: did not significantly change the enzymatic activity

## O=C1C(=O)c2cccnc2-c2ncccc21 [Phendione, 1,10-Phenanthroline-5,6-dione]
LasB
  Ki: 0.38 µM
[2]; 1 μg/mL
  reduction of proteolytic activity: 67%
Secreted gp63 [3]
  IC50: 1490 µM
  Ki: 745 µM

## O=S(=O)(F)Cc1ccccc1 [PMSF, phenylmethylsulphonyl fluoride]
Secreted gp63 [1]; inhibitor at 10 mM
  effect on hydrolysis of Z-Phe-Arg-AMC by gp63: did not significantly change the enzymatic activity

## O=C1C(=O)c2cccnc2-c2ncccc21.O=C1C(=O)c2cccnc2-c2ncccc21.[Ag+].[O-][Cl+3]([O-])([O-])[O-] [Ag-phendione, [Ag(phendione)2]ClO4]
[4]
  proteolytic capacity of cell-associated metallo-type peptidases reduced to: approximately 55%
[5]; [11]
  association index (AI): 77.3
[5]; [12]
  association index (AI): 48.2
[5]; [13]
  association index (AI): 88.1
[5]; [14]
  association index (AI): 60.6
[2]; 1 μg/mL
  reduction of proteolytic activity: 68%
[6]
  reduction of the Leishmania-macrophage interaction: approximately 51.4%
L. braziliensis
  protective action (paw lesion, parasite number in paw and lymph nodes): excellent protective action

## O.O.O.O.O=C1C(=O)c2cccnc2-c2ncccc21.O=C1C(=O)c2cccnc2-c2ncccc21.O=C1C(=O)c2cccnc2-c2ncccc21.[Cu+2].[O-][Cl+3]([O-])([O-])[O-].[O-][Cl+3]([O-])([O-])[O-] [Cu-phendione, [Cu(phendione)3](ClO4)2.4H2O]
[4]
  proteolytic capacity of cell-associated metallo-type peptidases reduced to: approximately 48%
[5]; [11]
  association index (AI): 64.6
[5]; [12]
  association index (AI): 54.8
[5]; [13]
  association index (AI): 76.5
[5]; [14]
  association index (AI): 63.1
Secreted gp63 [7]; secreted gp63 10 µg, 10 µM Z-Phe-Arg-AMC, glycine-NaOH pH 10.0, 37 °C, 1 h
  IC50: 163 µM
Secreted gp63 [7]; secreted gp63, Z-Phe-Arg-AMC, glycine-NaOH pH 10.0
  Ki: 27.1 µM
[8]
  IC50: 0.0075 µM
[9]
  IC50: 0.035 µM
LasB
  Ki: 0.09 µM
[2]; 0.1 μg/mL
  reduction of proteolytic activity: 65%
[2]; 1 μg/mL
  reduction of proteolytic activity: 80%
[6]
  reduction of the Leishmania-macrophage interaction: 44.4%
L. braziliensis
  protective action (paw lesion, parasite number in paw and lymph nodes): excellent protective action

## c1cnc2c(c1)ccc1cccnc12 [Phen, 1,10-phenanthroline]
Secreted gp63 [1]; inhibitor at 10 mM
  effect on hydrolysis of Z-Phe-Arg-AMC by gp63: strong inhibition of the proteolytic activity
Secreted gp63 [10]
  effect on proteolytic bands around 66 kDa: inhibited

B1: oryzacystatin I (protein, UniProt P09229 27-140, looked up)
Cysteine proteinase inhibitor …: EAHRAGGEGEEKMSSDGGPVLGGVEPVGNENDLHLVDLARFAVTEHNKKANSLLEFEKLVSVKQQVVAGTLYYFTIEVKEGDAKKLYEAKVWEKPWMDFKELQEFKPVDASANA
papain
  inhibition of enzymatic activity of papain by the complex after electrophoresis: about 80%
